Test results from publication PMC5040960, “A single molecule assay to probe monovalent and multivalent bonds between hyaluronan and its key leukocyte receptor CD44 under force” (Scientific Reports, 2016).

Biological target: T1, streptavidin (SAv) (Streptomyces avidinii, UniProt P22629)
T1 construct: commercial lyophilized streptavidin (Sigma Aldrich), homotetramer, immobilised as monolayer on biotinylated OEG
Experiment: AFM single molecule force spectroscopy, Bell-Evans fit
Assay type: binding
Conditions: labelled compound (biotin tethered to AFM tip by PEG linker and thiol-gold bond); koff extrapolated to zero force; 10 mM HEPES pH 7.4, 150 mM NaCl, ambient temperature
Source text: AFM single molecule force spectroscopy, Bell-Evans fit on streptavidin (SAv)

T1 sequence (P22629 25-183): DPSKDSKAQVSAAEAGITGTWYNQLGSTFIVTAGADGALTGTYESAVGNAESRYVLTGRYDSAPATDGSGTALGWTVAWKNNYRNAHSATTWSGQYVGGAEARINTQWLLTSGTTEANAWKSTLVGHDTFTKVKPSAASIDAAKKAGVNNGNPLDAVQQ

## biotin
  koff: 1.40 ± 0.59 s⁻¹
